The test addresses T1, Androgen Receptor (Homo sapiens, UniProt P10275).
T1 construct: endogenous in cells; host or cells: VCaP cells
T1 sequence (P10275 1-920): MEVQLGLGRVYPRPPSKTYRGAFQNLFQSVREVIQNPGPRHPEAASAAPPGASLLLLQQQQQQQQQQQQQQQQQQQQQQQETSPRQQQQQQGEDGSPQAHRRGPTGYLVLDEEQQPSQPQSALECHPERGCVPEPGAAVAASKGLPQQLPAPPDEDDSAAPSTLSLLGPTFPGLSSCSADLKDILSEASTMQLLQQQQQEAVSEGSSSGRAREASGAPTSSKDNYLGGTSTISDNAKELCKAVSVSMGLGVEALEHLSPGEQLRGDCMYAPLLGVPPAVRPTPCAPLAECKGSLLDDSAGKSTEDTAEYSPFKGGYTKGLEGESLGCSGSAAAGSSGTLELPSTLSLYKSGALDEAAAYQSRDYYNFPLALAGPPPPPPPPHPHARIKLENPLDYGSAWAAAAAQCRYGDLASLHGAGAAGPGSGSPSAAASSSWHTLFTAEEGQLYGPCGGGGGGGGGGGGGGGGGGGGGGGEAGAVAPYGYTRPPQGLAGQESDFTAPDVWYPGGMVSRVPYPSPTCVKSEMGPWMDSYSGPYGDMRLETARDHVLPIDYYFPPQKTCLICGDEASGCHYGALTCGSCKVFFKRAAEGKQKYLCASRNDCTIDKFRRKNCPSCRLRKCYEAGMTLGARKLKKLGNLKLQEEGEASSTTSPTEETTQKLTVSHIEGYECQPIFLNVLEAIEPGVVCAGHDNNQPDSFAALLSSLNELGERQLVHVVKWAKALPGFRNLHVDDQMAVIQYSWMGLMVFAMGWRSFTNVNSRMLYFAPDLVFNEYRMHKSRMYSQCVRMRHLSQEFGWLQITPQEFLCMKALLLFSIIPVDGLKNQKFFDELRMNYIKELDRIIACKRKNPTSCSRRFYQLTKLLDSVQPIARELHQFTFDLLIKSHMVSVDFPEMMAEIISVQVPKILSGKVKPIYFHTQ
As to the kind of experiment: Androgen Receptor ELISA assay (PathScan AR ELISA) in VCaP cells: AR degradation, Dmax and DC50. The format is cell-based. The gist of the method: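 VCaP cells, 30,000/well, grown ≥3 days in phenol red-free RPMI with 5% charcoal-stripped FBS; compound added in 0.1% DMSO with 0.1 nM R1881, 7 half-log doses, 24 h. Lysate AR quantified by PathScan sandwich ELISA, HRP/TMB read at 450 nm, giving DC50 and Dmax.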
For orientation: An ELISA detects its analyte on a solid surface through an enzyme-linked reagent.

Where [1] appears, read: VCaP, highest percentage of Androgen Receptor degradation observed, VCaP cells (Table 32); read-out: VCaP Dmax (%).
The mark [2] stands for this setting: concentration that caused 50% Androgen Receptor degradation, VCaP cells (Table 32); read-out: VCaP DC50.
[3] abbreviates: read-out: VCaP DC50; concentration that caused 50% Androgen Receptor degradation, VCaP cells (Table 32).

Consider 11 compounds from patent publication US11427548B2 (Arvinas Operations, Inc., priority 2015, dated 2022).

Like-named read-outs stand apart in the source and are kept apart here.

A word on the Dmax: it is the greatest extent of degradation seen. One may read the DC50 as the concentration giving 50% degradation. In the case of `Cc1cc(N2C(=O)C(C)(C)N(c3ccc(-c4ccc(OCCCCOCC(=O)N[C@H](C(=O)N5C[C@H](O)C[C@H]5C(=O)NCc5ccc(-c6cnco6)cc5)C(C)(C)C)cc4)cc3)C2=S)ccc1C#N` [Example 125, (2S,4R)-1-[(2S)-2-{2-[4-(4-{4-[3-(4-cyano-3-methylphenyl)-5,5-dimethyl-4-oxo-2-sulfanylideneimidazolidin-1-yl]phenyl}phenoxy)butoxy]acetamido}-3,3-dimethylbutanoyl]-4-hydroxy-N-{[4-(1,3-oxazol-5-yl)phenyl]methyl}pyrrolidine-2-carboxamide], under setting [1], the greatest degradation seen (Dmax) was in the range of 51 to 70%. Moreover, the DC50 under setting [2] is less than 50 nM.
With `CC(C)(C)[C@H](NC(=O)COCCCCOc1ccc(-c2ccc(N3C(=S)N(c4ccc(C#N)c(F)c4)C(=O)C3(C)C)cc2)cc1)C(=O)N1C[C@H](O)C[C@H]1C(=O)NCc1ccc(-c2cnco2)cc1` [Example 126, (2S,4R)-1-[(2S)-2-{2-[4-(4-{4-[3-(4-cyano-3-fluorophenyl)-5,5-dimethyl-4-oxo-2-sulfanylideneimidazolidin-1-yl]phenyl}phen-oxy)butoxy]acetamido}-3,3-dimethylbutanoyl]-4-hydroxy-N-{[4-(1,3-oxazol-5-yl)phenyl]methyl}pyrrolidine-2-carboxamide], the Dmax under setting [1] fell in the range of 51 to 70%. In addition, the DC50 under setting [2] is less than 50 nM.
For the compound `Cc1ncsc1-c1ccc(CNC(=O)[C@@H]2C[C@@H](O)CN2C(=O)[C@@H](NC(=O)COc2ccc(Oc3cccc(-c4ccc(N5C(=S)N(c6ccc(C#N)c(C(F)(F)F)c6)C(=O)C5(C)C)cc4)c3)cc2)C(C)(C)C)cc1` [Example 127, (2S,4R)-1-[(2S)-2-(2-{4-[3-(4-{3-[4-cyano-3-(trifluoromethyl)phenyl]-5,5-dimethyl-4-oxo-2-sulfanylideneimidazolidin-1-yl}phenyl)phen-oxy]phenoxy}acetamido)-3,3-dimethylbutanoyl]-4-hydroxy-N-{[4-(4-methyl-1,3-thiazol-5-yl)phenyl]methyl}pyrrolidine-2-carboxamide], the maximal degradation (Dmax) (VCaP, read-out: VCaP Dmax (%)) is more than 71%. Besides, the DC50 under setting [3] was less than 50 nM.
On the same counts, the results for `Cc1ncsc1-c1ccc(CNC(=O)[C@@H]2C[C@@H](O)CN2C(=O)[C@@H](NC(=O)COCCCOCc2ccc(-c3ccc(N4C(=S)N(c5ccc(C#N)c(C(F)(F)F)c5)C(=O)C4(C)C)cc3)cc2)C(C)(C)C)cc1` [Example 128, (2S,4R)-1-[(2S)-2-[2-(3-{[4-(4-{3-[4-cyano-3-(trifluoromethyl)phenyl]-5,5-dimethyl-4-oxo-2-sulfanylideneimidazolidin-1-yl}phenyl)phen-yl]methoxy}propoxy)acetamido]-3,3-dimethylbutanoyl]-4-hydroxy-N-{[4-(4-methyl-1,3-thiazol-5-yl)phenyl]methyl}pyrrolidine-2-carboxamide] are 51 to 70% and less than 50 nM.
In the case of `Cc1ncsc1-c1ccc(CNC(=O)[C@@H]2C[C@@H](O)CN2C(=O)[C@@H](NC(=O)COCCC(O)COc2ccc(-c3ccc(N4C(=S)N(c5ccc(C#N)c(C(F)(F)F)c5)C(=O)C4(C)C)cc3)cc2)C(C)(C)C)cc1` (stereo partly drawn) [Example 129, (2S,4R)-1-[(2S)-2-(2-{4-[4-(4-{3-[4-cyano-3-(trifluoromethyl)phenyl]-5,5-dimethyl-4-oxo-2-sulfanylideneimidazolidin-1-yl}phenyl)phenoxy]-3-hydroxybutoxy}acetamido)-3,3-dimethylbutanoyl]-4-hydroxy-N-{[4-(4-methyl-1,3-thiazol-5-yl)phenyl]methyl}pyrrolidine-2-carboxamide], the Dmax (VCaP, read-out: VCaP Dmax (%)) lay within 51 to 70%. For the same compound, the 50% degradation concentration (DC50) under setting [3] was less than 50 nM.
Take `Cc1ncsc1-c1ccc(CNC(=O)[C@@H]2C[C@@H](O)CN2C(=O)[C@@H](NC(=O)COC[C@H](O)CCOc2ccc(-c3ccc(N4C(=S)N(c5ccc(C#N)c(C(F)(F)F)c5)C(=O)C4(C)C)cc3)cc2)C(C)(C)C)cc1` [Example 130, (2S,4R)-1-[(2S)-2-{2-[(2R)-4-[4-(4-{3-[4-cyano-3-(trifluoromethyl)phenyl]-5,5-dimethyl-4-oxo-2-sulfanylideneimidazolidin-1-yl}phenyl)phenoxy]-2-hydroxybutoxy]acetamido}-3,3-dimethylbutanoyl]-4-hydroxy-N-{[4-(4-methyl-1,3-thiazol-5-yl)phenyl]methyl}pyrrolidine-2-carboxamide]: the Dmax (VCaP, read-out: VCaP Dmax (%)) fell in the range of 51 to 70%. The 50% degradation concentration (DC50) under setting [3] is less than 50 nM.
Consider `C[C@H](NC(=O)[C@@H]1C[C@@H](O)CN1C(=O)[C@@H](NC(=O)COCCCCOc1ccc(-c2ccc(N3C(=S)N(c4ccc(C#N)c(Cl)c4)C(=O)C3(C)C)cc2)cc1)C(C)(C)C)c1ccc(-c2cnco2)cc1` [Example 132, (2S,4R)-1-[(2S)-2-{2-[4-(4-{4-[3-(3-chloro-4-cyanophenyl)-5,5-dimethyl-4-oxo-2-sulfanylideneimidazolidin-1-yl]phenyl}phenoxy)butoxy]acetamido}-3,3-dimethylbutanoyl]-4-hydroxy-N-[(1S)-1-[4-(1,3-oxazol-5-yl)phenyl]ethyl]pyrrolidine-2-carboxamide], for which the maximal degradation (Dmax) (VCaP, read-out: VCaP Dmax (%)) was more than 71%. Also, the DC50 under setting [3] is less than 50 nM.
For `CC(C)(C)[C@H](NC(=O)COCCCCOc1ccc(-c2ccc(N3C(=S)N(c4cc(Cl)c(C#N)cc4F)C(=O)C3(C)C)cc2)cc1)C(=O)N1C[C@H](O)C[C@H]1C(=O)NCc1ccc(-c2cnco2)cc1` [Example 133, (2S,4R)-1-[(2S)-2-{2-[4-(4-{4-[3-(5-chloro-4-cyano-2-fluorophenyl)-5,5-dimethyl-4-oxo-2-sulfanylideneimidazolidin-1-yl]phenyl}phenoxy)butoxy]acetamido}-3,3-dimethylbutanoyl]-4-hydroxy-N-{[4-(1,3-oxazol-5-yl)phenyl]methyl}pyrrolidine-2-carboxamide], the Dmax (VCaP, read-out: VCaP Dmax (%)) was less than 25%.
Consider `Cc1ncoc1-c1ccc(CNC(=O)[C@@H]2C[C@@H](O)CN2C(=O)[C@@H](NC(=O)COCCCC(=O)Nc2ccc(-c3ccc(N4C(=S)N(c5ccc(C#N)c(C(F)(F)F)c5)C(=O)C4(C)C)cc3)cc2)C(C)(C)C)cc1` [Example 135, (2S,4R)-1-[(2S)-2-[2-(3-{[4-(4-{3-[4-cyano-3-(trifluoromethyl)phenyl]-5,5-dimethyl-4-oxo-2-sulfanylideneimidazolidin-1-yl}phenyl)phenyl]carbamoyl}pro-poxy)acetamido]-3,3-dimethylbutanoyl]-4-hydroxy-N-{[4-(4-methyl-1,3-oxazol-5-yl)phenyl]methyl}pyrrolidine-2-carboxamide], for which the greatest degradation seen (Dmax) (VCaP, read-out: VCaP Dmax (%)) fell in the range of 51 to 70%. The DC50 under setting [3] is less than 50 nM.
Consider `Cc1cc(OCCCCOCC(=O)N[C@H](C(=O)N2C[C@H](O)C[C@H]2C(=O)NCc2ccc(-c3scnc3C)cc2)C(C)(C)C)ccc1-c1ccc(N2C(=S)N(c3ccc(C#N)c(C(F)(F)F)c3)C(=O)C2(C)C)cc1` [Example 136, (2S,4R)-1-[(2S)-2-(2-{4-[4-(4-{3-[4-cyano-3-(trifluoromethyl)phenyl]-5,5-dimethyl-4-oxo-2-sulfanylideneimidazolidin-1-yl}phenyl)-3-methylphenoxy]butoxy}acetamido)-3,3-dimethylbutanoyl]-4-hydroxy-N-{[4-(4-methyl-1,3-thiazol-5-yl)phenyl]methyl}pyrrolidine-2-carboxamide], for which the Dmax (VCaP, read-out: VCaP Dmax (%)) is more than 71%. Also, the half-maximal degradation concentration (DC50) under setting [3] is less than 50 nM.
As for `Cc1ncsc1-c1ccc([C@H](C)NC(=O)[C@@H]2C[C@@H](O)CN2C(=O)[C@@H](NC(=O)COCCCCOc2ccc(-c3ccc(N4C(=S)N(c5ccc(C#N)c(C(F)(F)F)c5)C(=O)C4(C)C)c(F)c3)cc2)C(C)(C)C)cc1` [Example 137, (2S,4R)-1-[(2S)-2-(2-{4-[4-(4-{3-[4-cyano-3-(trifluoromethyl)phenyl]-5,5-dimethyl-4-oxo-2-sulfanylideneimidazolidin-1-yl}-3-fluorophenyl)phenoxy]butoxy}acetamido)-3,3-dimethylbutanoyl]-4-hydroxy-N-[(1S)-1-[4-(4-methyl-1,3-thiazol-5-yl)phenyl]ethyl]pyrrolidine-2-carboxamide], under “VCaP, read-out: VCaP Dmax (%)”, the greatest degradation seen (Dmax) is more than 71%. Further, under setting [3], the DC50 is less than 50 nM.
